# Laboratory results from ChEMBL document CHEMBL1201862, “PubChem BioAssay data set” (2004).
#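 Each compound was tested at five concentrations against cells in 96-well plates for 48 hours. GI50: concentration for 50% inhibition of growth.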 Active and inactive are the calls of the source. Rule as the data show it: active = GI50 up to about 1.1 µM and inactive = higher.
# Key:
# Assay in all cases: DTP human tumour cell line panel, 48 h
# ACHN = test system: ACHN
# NCI-H226 = test system: NCI-H226
# A549 = test system: A549
# Hs-578T = test system: Hs-578T
# HT-29 = test system: HT-29
# DU-145 = test system: DU-145
# HOP-62 = test system: HOP-62
# SK-MEL-2 = test system: SK-MEL-2
# LOX IMVI = test system: LOX IMVI
# MDA-MB-231 = test system: MDA-MB-231
# HCT-116 = test system: HCT-116
# HL-60 = test system: HL-60
# UACC-62 = test system: UACC-62
# IGROV-1 = test system: IGROV-1
# OVCAR-5 = test system: OVCAR-5
# MDA-MB-435 = test system: MDA-MB-435
# OVCAR-4 = test system: OVCAR-4
# MDA-N = test system: MDA-N
# EKVX = test system: EKVX
Structure (SMILES),GI50 (ACHN),GI50 (NCI-H226),GI50 (A549),GI50 (Hs-578T),GI50 (HT-29),GI50 (DU-145),GI50 (HOP-62),GI50 (SK-MEL-2),GI50 (LOX IMVI),GI50 (MDA-MB-231),GI50 (HCT-116),GI50 (HL-60),GI50 (UACC-62),GI50 (IGROV-1),GI50 (OVCAR-5),GI50 (MDA-MB-435),GI50 (OVCAR-4),GI50 (MDA-N),GI50 (EKVX)
N#C/C(=C\NC(=S)c1ccncc1)c1nc2ccccc2s1,> 100 µM (inactive),> 100 µM (inactive),> 100 µM (inactive),> 100 µM (inactive),> 100 µM (inactive),> 100 µM (inactive),> 100 µM (inactive),82.2 µM (inactive),> 100 µM (inactive),39.6 µM (inactive),> 100 µM (inactive),> 100 µM (inactive),> 100 µM (inactive),> 100 µM (inactive),> 100 µM (inactive),> 100 µM (inactive),> 100 µM (inactive),> 100 µM (inactive),67.1 µM (inactive)
CCCC(=O)Nc1ncnc2c1ncn2C1OC2COP(=O)(O)OC2C1OC(=O)CCC (configuration not stated),> 100 µM (inactive),> 100 µM (inactive),> 100 µM (inactive),> 1000 µM (inactive),> 100 µM (inactive),> 100 µM (inactive),> 100 µM (inactive),> 100 µM (inactive),> 100 µM (inactive),479 µM (inactive),> 100 µM (inactive),180 µM (inactive),> 100 µM (inactive),22.5 µM (inactive),> 100 µM (inactive),> 100 µM (inactive),> 100 µM (inactive),> 100 µM (inactive),> 100 µM (inactive)
O=[N+]([O-])c1ccc(C[S+]([O-])Cc2ccccc2)cc1 (configuration not stated),> 100 µM (inactive),> 100 µM (inactive),> 100 µM (inactive),> 100 µM (inactive),> 100 µM (inactive),> 100 µM (inactive),> 100 µM (inactive),> 100 µM (inactive),> 100 µM (inactive),> 100 µM (inactive),> 100 µM (inactive),> 100 µM (inactive),> 100 µM (inactive),> 100 µM (inactive),> 100 µM (inactive),> 100 µM (inactive),> 100 µM (inactive),> 100 µM (inactive),> 100 µM (inactive)
CC(=O)Nc1nc(O)c2nc(C=O)cnc2n1,> 100 µM (inactive),> 100 µM (inactive),> 100 µM (inactive),> 100 µM (inactive),> 100 µM (inactive),> 100 µM (inactive),> 100 µM (inactive),> 100 µM (inactive),> 100 µM (inactive),> 100 µM (inactive),> 100 µM (inactive),> 100 µM (inactive),> 100 µM (inactive),> 100 µM (inactive),> 100 µM (inactive),> 100 µM (inactive),> 100 µM (inactive),> 100 µM (inactive),> 100 µM (inactive)
O=C(N(O)c1ccccc1Cl)C(O)(c1ccccc1)c1ccccc1,52.8 µM (inactive),> 100 µM (inactive),71.1 µM (inactive),42.5 µM (inactive),85.7 µM (inactive),59.8 µM (inactive),> 100 µM (inactive),> 100 µM (inactive),49.3 µM (inactive),> 100 µM (inactive),> 100 µM (inactive),22.6 µM (inactive),45.8 µM (inactive),78.9 µM (inactive),82 µM (inactive),65.2 µM (inactive),> 100 µM (inactive),67.1 µM (inactive),> 100 µM (inactive)
Cc1cc(CCC(=O)NCCNc2c3ccccc3nc3ccccc23)cc(C)c1O[Si](C)(C)C(C)(C)C,1.66 µM (inactive),17.1 µM (inactive),0.638 µM (active),2.01 µM (inactive),0.446 µM (active),1.1 µM (active),1.51 µM (inactive),1.91 µM (inactive),0.148 µM (active),13.1 µM (inactive),0.363 µM (active),1.52 µM (inactive),14.5 µM (inactive),1.76 µM (inactive),1.69 µM (inactive),0.3 µM (active),1.32 µM (inactive),0.399 µM (active),1.6 µM (inactive)
OC(C/C(=N\N1CCCCC1)c1cccs1)(C(F)(F)F)C(F)(F)F,> 10 µM (inactive),> 10 µM (inactive),> 10 µM (inactive),> 10 µM (inactive),> 10 µM (inactive),> 10 µM (inactive),> 10 µM (inactive),> 10 µM (inactive),> 10 µM (inactive),> 10 µM (inactive),> 10 µM (inactive),> 10 µM (inactive),> 10 µM (inactive),> 10 µM (inactive),–,> 10 µM (inactive),> 10 µM (inactive),> 10 µM (inactive),> 10 µM (inactive)
COc1cc2c(c3c1c(=O)c1ccccc1n3C)C=C([N+](=O)[O-])C(C)(C)O2,0.0506 µM (active),0.546 µM (active),0.0247 µM (active),25.6 µM (inactive),0.522 µM (active),< 0.0456 µM (active),30.9 µM (inactive),0.0991 µM (active),0.138 µM (active),1.08 µM (active),0.239 µM (active),0.167 µM (active),0.769 µM (active),0.575 µM (active),–,0.0931 µM (active),> 100 µM (inactive),0.114 µM (active),–
COc1cccc(N2C(=O)CSC2c2cc(OC)c(OC)c(OC)c2)c1 (configuration not stated),57.7 µM (inactive),26.7 µM (inactive),37.1 µM (inactive),48.2 µM (inactive),33.1 µM (inactive),12 µM (inactive),–,> 100 µM (inactive),32.8 µM (inactive),69.7 µM (inactive),31.8 µM (inactive),31.7 µM (inactive),34.2 µM (inactive),44.6 µM (inactive),54.8 µM (inactive),3.85 µM (inactive),47.3 µM (inactive),3.95 µM (inactive),49.7 µM (inactive)
CC1C/C(=C\c2ccc(OC(=O)C(C)(C)C)cc2)C(=O)/C(=C/c2ccc(OC(=O)C(C)(C)C)cc2)C1 (configuration not stated),69.3 µM (inactive),22.2 µM (inactive),40.6 µM (inactive),49.3 µM (inactive),> 100 µM (inactive),> 100 µM (inactive),41.2 µM (inactive),61 µM (inactive),35.6 µM (inactive),59.3 µM (inactive),61.2 µM (inactive),23.5 µM (inactive),95.5 µM (inactive),7.64 µM (inactive),> 100 µM (inactive),46.5 µM (inactive),31.4 µM (inactive),30.5 µM (inactive),> 100 µM (inactive)
CCn1c(=O)c2nc(SC)sc2n(-c2ccc(C)cc2)c1=O,> 100 µM (inactive),> 100 µM (inactive),> 100 µM (inactive),21.3 µM (inactive),> 100 µM (inactive),> 100 µM (inactive),> 100 µM (inactive),66.4 µM (inactive),> 100 µM (inactive),> 100 µM (inactive),> 100 µM (inactive),> 100 µM (inactive),–,> 100 µM (inactive),> 100 µM (inactive),2.17 µM (inactive),> 100 µM (inactive),> 100 µM (inactive),–
Cc1ccc2nc(-c3ccc(-n4c(C)nc(=O)c(-c5ccc(F)cc5)c4C)cc3)sc2c1,14.6 µM (inactive),17.5 µM (inactive),14.7 µM (inactive),25.9 µM (inactive),13.2 µM (inactive),15.9 µM (inactive),22 µM (inactive),19.1 µM (inactive),22.7 µM (inactive),14.1 µM (inactive),11.9 µM (inactive),11.4 µM (inactive),–,14.2 µM (inactive),19.3 µM (inactive),15.1 µM (inactive),17.6 µM (inactive),14.4 µM (inactive),13.5 µM (inactive)
C=C1C(C(O)C[C@H](C)C2O[C@@]3(CCCCO3)CCC2C)O[C@@H]2CCC3(CCC(/C=C/[C@@H](C)C4CC(C)=CC5(O4)O[C@H](C[C@](C)(O)C(=O)O)CCC5O)O3)OC2[C@@H]1O (some centres not stated),0.0191 µM (active),0.00405 µM (active),0.0267 µM (active),0.00318 µM (active),0.00828 µM (active),0.00908 µM (active),–,0.00253 µM (active),0.004 µM (active),0.00411 µM (active),0.00381 µM (active),0.00408 µM (active),0.00347 µM (active),0.0217 µM (active),0.00826 µM (active),0.00075 µM (active),0.0286 µM (active),0.00117 µM (active),0.00614 µM (active)
[N-]=[N+]=NC1C(O)C(CO)OC1n1cnc2c(N)ncnc21 (configuration not stated),5.28 µM (inactive),51.6 µM (inactive),47.5 µM (inactive),> 100 µM (inactive),31 µM (inactive),3.04 µM (inactive),84.9 µM (inactive),> 100 µM (inactive),24.7 µM (inactive),> 100 µM (inactive),42.3 µM (inactive),0.522 µM (active),99.5 µM (inactive),92.7 µM (inactive),> 100 µM (inactive),82.6 µM (inactive),> 100 µM (inactive),71.3 µM (inactive),> 100 µM (inactive)
Cc1ccc(NCCN(C)C)c2c(=O)c3cc(O)ccc3oc12,4.62 µM (inactive),15.8 µM (inactive),6.25 µM (inactive),6.41 µM (inactive),11.2 µM (inactive),15.1 µM (inactive),11 µM (inactive),20.6 µM (inactive),9.53 µM (inactive),9.04 µM (inactive),4.86 µM (inactive),2.29 µM (inactive),10.1 µM (inactive),12.3 µM (inactive),15.5 µM (inactive),12 µM (inactive),17 µM (inactive),10.7 µM (inactive),15.7 µM (inactive)
